{
  "source": "patent US10729668B2",
  "about": "“Ketobutyrate compounds and compositions for treating age-related symptoms and diseases” (The Regents of the University of California, priority 2014, dated 2020)",
  "key": {"[1]": {"tested_on": "cardiomyocytes of neonatal rats", "assay": "Catecholamine (ISO, PE) induced hypertrophy of cardiomyocytes", "type": "cell-based, rat", "conditions": "1 mM", "description": "In additional experiments, cardiomyocytes of neonatal rats were isolated by collagenase digestion and cultured overnight in DMEM containing 10% FCS, and then culture medium was changed to serum-free high glucose DMEM with supplement of ITS (insulin, transferrin, and sodiumselenite).\nCatecholamine-induced cardiac hypertrophy."}, "C. elegans": {"tested_on": "C. elegans", "assay": "Lifespan of adult C. elegans on treatment plates", "type": "in vivo, Caenorhabditis elegans", "method": "C. elegans were synchronized by performing either a timed egg lay or an egg preparation (mix <100 gravid worms in 70 μl M9 buffer, 25 μl bleach, and 5 μl 10 N NaOH). Once the worms reached adulthood, they were picked onto NGM treatment plates containing 1.5% dimethyl sulfoxide (DMSO; Sigma D8418), 49.5 μM 5-fluoro-2′-deoxyuridine (FUDR, Sigma F0503), 50 μg/ml ampicillin, and α-KB (Sigma K401). Plates containing α-KB were adjusted to pH 6.0 (i.e., the same pH as the control plates) by the addition of NaOH. Treatment plates were seeded with OP50 E. coli as the C. elegans food source. […] Worms were moved to new plates every 4 days. All lifespan experiments were conducted at 20° C."}, "Huh7.5 cells": {"tested_on": "Huh7.5 cells", "assay": "MTT cytotoxicity assay", "type": "cell-based", "conditions": "100 nM to 1 mM, up to 72 hours", "method": "As subjects age, their susceptibility to infection increases. Therefore, to determine whether α-KB reduces ones susceptibility to age-related infection, Huh7.5 cells were infected with the Renilla reporter HCV for 5 hours and subsequently treated with 1 mM and 1 μM of α-KB. 72 hours post treatment, the cells were lysed and luciferase activity was measured. JG-98, which is a suppressor of viral assembly, was used as a positive control and water was used as a negative control. […] To ensure that the anti-viral activity of α-KB is not the result of cytotoxicity, Huh7.5 cells were treated with 1 mM, 100 μM, 10 μM, 1 μM, and 100 nM α-KB. MTT assays were performed every 24 hours up to 72 hours post treatment. Luteolin, an anti-cancer compound which is cytotoxic, was used as a positive control and water was used as a negative control."}, "GMC101 C. elegans strain": {"tested_on": "GMC101 C. elegans strain", "assay": "Paralysis in C. elegans Alzheimer's disease model", "type": "in vivo, Caenorhabditis elegans", "conditions": "4 mM, 30° C.", "method": "Worms were age-synchronized by performing a timed egg lay for 3 hours with about 100 gravid adults and the eggs placed in a 20° C. incubator. Once the eggs had developed to the L4 stage at 42 hours post egg lay, they were picked onto NGM treatment plates containing 49.5 μM 5-fluoro-2′-deoxyuridine (FUDR, Sigma F0503) to prevent progeny production and either 4 mM α-KB or vehicle (water) control. The worms were then shifted to 30° C. to induce amyloid-beta aggregation and paralysis. […] Most paralyzed worms could still move their heads and part of their body. All worms were transferred to fresh treatment plates on Day 4."}, "[2]": {"tested_on": "NADH dehydrogenase (Complex I)", "assay": "NADH dehydrogenase (Complex I) driven coupling assay, isolated liver mitochondria (pyruvate and malate)", "type": "biochemical, mouse", "conditions": "respiration driven by pyruvate and malate", "method": "Animal studies were performed under approved UCLA animal research protocols. Mitochondria from 3-month-old C57BL/6 mice were isolated. Briefly, livers were extracted, minced at 4° C. in MSHE+BSA (70 mM sucrose, 210 mM mannitol, 5 mM HEPES, 1 mM EGTA, and 0.5% fatty acid free BSA, pH 7.2), and rinsed several times to remove blood. All subsequent steps were performed on ice or at 4° C. The tissue was disrupted in 10 volumes of MSHE+BSA with a glass Dounce homogenizer (5-6 strokes) and the homogenate was centrifuged at 800×g for 10 minutes to remove tissue debris and nuclei. The supernatant was decanted through a cell strainer and centrifuged at 8,000×g for 10 minutes. The dark mitochondrial pellet was resuspended in MSHE+BSA and re-centrifuged at 8,000×g for 10 minutes. The final mitochondrial pellet was resuspended in 30 μl of MAS buffer (70 mM sucrose, 220 mM mannitol, 10 mM KH2PO4, 5 mM MgCl2, 2 mM HEPES, 1 mM EGTA, and 0.2% fatty acid free BSA, pH 7.2). Isolated mitochondrial respiration was measured by running coupling and electron flow assays as described. […]\nMitochondrial respiration was measured by running coupling and electron flow assays. […]"}},
  "data": [
    {"smiles": "CCC(=O)C(=O)O", "note": "[α-KB, α-ketobutyrate]", "values": [
      {"measurement": "induced overexpression of ANF and BNP", "setting": "[1]", "value": "suppressed"},
      {"measurement": "ISO- and PE-induced hypertrophy", "setting": "[1]; 48 hours", "value": "completely abolished"},
      {"measurement": "lifespan as compared to untreated control subjects", "setting": "C. elegans; adult C. elegans, 20° C.", "value": "extends the lifespan"},
      {"measurement": "potency relative to α-KG in treating, inhibiting, or reducing aging and age-related symptoms", "setting": "C. elegans; in vivo", "value": "about 1 fold"},
      {"measurement": "cytotoxicity (MTT)", "setting": "Huh7.5 cells", "value": "not cytotoxic"},
      {"measurement": "delay of paralysis compared to vehicle treated worms", "setting": "GMC101 C. elegans strain", "value": "up to 37%"},
      {"measurement": "ADP-induced and FCCP-induced respiration", "setting": "[2]", "value": "significant decrease"}
    ]}
  ]
}
